Reference: patent EP1674470A1, “Sulfonamido-macrocycles as Tie2 inhibitors” (Schering Aktiengesellschaft, priority 2004, dated 2006)

What follows are compounds tested on DU 145 (assay: Proliferation test (cytotoxicity assay, crystal violet staining)). Details: Homo sapiens; cytotoxicity assay using the cell line DU 145.
Assay type: cell-based
Procedure: Biological experiment 3: Proliferation test
To examine cell toxicity a cell proliferation test were established.
With the cell proliferation test different tumour cell lines (e.g. Du 145) can be examined. The cells were dispensed in RPMI 1640 culture medium, supplied with 10 % (v/v) fetal calf serum plus 1 % (v/v) Penicillin/Streptomycin solution at a cell density of 2.000 cell/100µL medium/per well (96well plate). After three hours the cells were washed with PBS (containing calcium and magnesium). 100 µl of culture medium above with 0.1 % (v/v) fetal calf serum was added and cultured at 37°C and 5% CO2-atmosphere. Next day compounds of the present invention diluted in DMSO for appropriate concentrations were added and further 100 µL culture medium 0.5 % (v/v) fetal calf serum. After 5 days cell culturing at 37°C and 5% CO2-atmosphere cells were washed with PBS. 20 µL of glutaraldehyde solution (11 % (v/v)) is added and the cells were slightly shaken at room temperature for 15 min. After that the cell were washed 3 times and dried in the air. 100 µL of crystal violet solution (0.1 % at pH 3.5) were added and the cells were shaken for 30 min. The cells were washed with tap water and air-dried. The colour is dissolved with 100 µL of acetic acid (10 % (v/v)) under strong shaking for 5 min. The absorption was measured at 595 nm wavelength.
`COC(=O)c1ccc(-c2cnc3nc2NCCCNS(=O)(=O)c2cccc(c2)N3)cc1` [Example Compound 1.1, methyl 4-[4,4-dioxo-4λ^6-thia-2,5,9-triaza-1(2,4)-pyrimidina-3(1,3)-benzenacyclononaphan-1^5-yl]benzoate] was tested, and the IC50 was over 1000 nM.
Compound `O=S1(=O)NCCCNc2nc(ncc2-c2ccccc2)Nc2cccc1c2` [Example Compound 1.3, 1^5-phenyl-4-thia-2,5,9-triaza-1(2,4)-pyrimidina-3(1,3)-benzenacyclononaphane 4,4-dioxide] has an IC50 of over 1000 nM.
Work on `COc1ccc(-c2cnc3nc2NCCCNS(=O)(=O)c2cccc(c2)N3)cc1` [Example Compound 1.5, 1^5-(4-methoxyphenyl)-4-thia-2,5,9-triaza-1(2,4)-pyrimidina-3(1,3)-benzenacyclononaphane 4,4-dioxide] yielded an IC50 of over 1000 nM.
In the case of `CC(=O)c1ccc(-c2cnc3nc2NCCCNS(=O)(=O)c2cccc(c2)N3)cc1` [Example Compound 1.2, 1-[4-[4,4-dioxo-4λ^6-thia-2,5,9-triaza-1(2,4)-pyrimidina-3(1,3)-benzenacyclononaphan-1^5-yl]phenyl]ethanone], the IC50 is reported as over 1000 nM.
